Laboratory results published in US20170253607A1, “LONG-ACTING HIV PROTEASE INHIBITOR” (Shionogi & Co., Ltd., priority 2014, published 2017).

Target: HIV-1 PR (Human immunodeficiency virus type 1 group M subtype B, UniProt P04585)
Assay: HIV-protease inhibitory activity assay (FRET peptide substrate)
Format: biochemical
Details: Test Example 1
Outline: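 HIV-1 PR (0.83 ng) preincubated with compounds 20 min at room temperature in 0.1 mol/L NaAc, 0.5 mol/L NaCl, 1 mmol/L EDTA, 1 mmol/L DTT, 0.05% Tween 20, pH 4.8. Cleavage of HiLyte Fluor 488/QXL 520 FRET peptide (2 μmol/L) read after 60 minutes at 485/535 nm; IC50 from four-parameter logistic fit.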

Row | Structure (SMILES) | IC50 [nM]
1 | COc1ccc(S(=O)(=O)N(CC(C)C)CC(O)C(Cc2ccc(NCc3cc(Oc4ccccc4)ccc3-c3sc4c(c3C(=O)O)CC(C)(C)CC4)cc2)NC(=O)OC2COC3(C)OCCC23)cc1 (stereo not drawn) [Compound I-654] | 8.75
2 | COc1ccc(S(=O)(=O)N(CC(C)C)CC(O)C(Cc2ccc(Nc3cccc(-c4sc5c(c4C(=O)O)CC(C)(C)CC5)c3)cc2)NC(=O)OC2COC3(C)OCCC23)cc1 (stereo not drawn) [Compound I-478] | 2.25
3 | COc1ccc(S(=O)(=O)N(CC(C)C)CC(O)C(Cc2ccc(OCc3csc(-c4sc5c(c4C(=O)O)CC(C)(C)CC5)n3)cc2)NC(=O)OC2COC3(C)OCCC23)cc1 (stereo not drawn) [Compound I-87] | 1.32
4 | COc1ccc(S(=O)(=O)N(CC(C)C)CC(O)C(Cc2ccc(NCc3ccc(C=CC(=O)Nc4sc5c(c4C(=O)O)CC(C)(C)CC5)cc3)cc2)NC(=O)OC2COC3(C)OCCC23)cc1 (stereo not drawn) [Compound I-444] | 5.1
5 | CC(C)CN(CC(O)C(Cc1ccc(OCc2cc(C(=O)O)ccc2-c2ccc(F)cc2F)cc1)NC(=O)OC1COC2(C)OCCC12)S(=O)(=O)c1ccc2ncsc2c1 (stereo not drawn) [Compound I-151] | 1.88
6 | COc1ccc(S(=O)(=O)N(CC(C)C)CC(O)C(Cc2ccc(NCc3ccccc3C(=O)Nc3sc4c(c3C(=O)O)CC(C)(C)CC4)cc2)NC(=O)OC2COC3(C)OCCC23)cc1 (stereo not drawn) [Compound I-397] | 2.64
7 | COc1ccc(S(=O)(=O)N(CC(C)C)CC(O)C(Cc2ccc(NCc3ccccc3NC(=O)Nc3sc4c(c3C(=O)O)CC(C)(C)CC4)cc2)NC(=O)OC2COC3OCCC23)cc1 (stereo not drawn) [Compound I-884] | 2.03
8 | COc1ccc(S(=O)(=O)N(CC(C)C)CC(O)C(Cc2ccc(NCc3ccc(C(=O)N(C)C)cc3-c3sc4c(c3C(=O)O)CC(C)(C)CC4)cc2)NC(=O)OC2COC3(C)OCCC23)cc1 (stereo not drawn) [Compound I-417] | 1.64
9 | COc1ccc(S(=O)(=O)N(CC(C)C)CC(O)C(Cc2ccc(NCc3ccc(-c4sc5c(c4C(=O)O)CC(C)(C)CC5)nc3)cc2)NC(=O)OC2COC3(C)OCCC23)cc1 (stereo not drawn) [Compound I-551] | 1.34
10 | COc1ccc(S(=O)(=O)N(CC(C)C)CC(O)C(Cc2ccc(NCc3nc(N4CCCCC4)sc3-c3sc4c(c3C(=O)O)CC(C)(C)CC4)cc2)NC(=O)OC2COC3(C)OCCC23)cc1 (stereo not drawn) [Compound I-737] | 1.99
11 | COc1ccc(S(=O)(=O)N(CC(C)C)CC(O)C(Cc2ccc(OCc3ccccc3-c3nc(C4=CCC(C)(C)CC4)sc3C(=O)O)cc2)NC(=O)OC2COC3OCCC23)cc1 (stereo not drawn) [Compound I-820] | 0.94
12 | COc1ccc(S(=O)(=O)N(CC(C)C)CC(O)C(Cc2ccc(N(C)CC3CC(C)(C)CCC3c3sc4c(c3C(=O)O)CC(C)(C)CC4)cc2)NC(=O)OC2COC3(C)OCCC23)cc1 (stereo not drawn) [Compound I-770] | 5.56
13 | COc1ccc(S(=O)(=O)N(CC(C)C)CC(O)C(Cc2ccc(NCC3CC(C)(C)CCC3c3sc4c(c3C(=O)O)CC(C)(C)CC4)cc2)NC(=O)OC2COC3OCCC23)cc1 (stereo not drawn) [Compound I-886] | 3.68
14 | COc1ccc(S(=O)(=O)N(CC(C)C)CC(O)C(Cc2ccc(OCc3ccccc3-c3sc4c(c3C(=O)O)C3CC(C4)C3(C)C)cc2)NC(=O)OC2COC3OCCC23)cc1 (stereo not drawn) [Compound I-829] | 1.2
15 | COc1ccc(S(=O)(=O)N(CC(C)C)CC(O)C(Cc2ccc(OCc3ccccc3-c3sccc3C(=O)O)cc2)NC(=O)OC2COC3(C)OCCC23)cc1 (stereo not drawn) [Compound I-97] | 0.82
16 | COc1ccc(S(=O)(=O)N(CC(C)C)CC(O)C(Cc2ccc(NCc3ccc(-c4sc5c(c4C(=O)O)CC(C)(C)CC5)cn3)cc2)NC(=O)OC2COC3(C)OCCC23)cc1 (stereo not drawn) [Compound I-290] | 2.08
17 | COc1ccc(S(=O)(=O)N(CC(C)C)CC(O)C(Cc2ccc(N3CCN(c4ccc(C#N)cc4-c4sc5c(c4C(=O)O)CC(C)(C)CC5)CC3)cc2)NC(=O)OC2COC3(C)OCCC23)cc1 (stereo not drawn) [Compound I-232] | 4.1
18 | COc1ccc(S(=O)(=O)N(CC(C)C)CC(O)C(Cc2ccc(N3CCC(Oc4cccc(-c5sc6c(c5C(=O)O)CC(C)(C)CC6)c4C)C3)cc2)NC(=O)OC2COC3(C)OCCC23)cc1 (stereo not drawn) [Compound I-597] | 7.37
19 | COc1ccc(S(=O)(=O)N(CC(C)C)CC(O)C(Cc2ccc(NCc3cc(-c4ccc5c(c4)[nH]c4ccccc45)ccc3-c3sc4c(c3C(=O)O)CC(C)(C)CC4)cc2)NC(=O)OC2COC3(C)OCCC23)cc1 (stereo not drawn) [Compound I-724] | 1.83
20 | COc1ccc(S(=O)(=O)N(CC(C)C)CC(O)C(Cc2ccc(N(C)Cc3nc(N(C4CCCCC4)C4CCCCC4)sc3-c3sc4c(c3C(=O)O)CC(C)(C)CC4)cc2)NC(=O)OC2COC3(C)OCCC23)cc1 (stereo not drawn) [Compound I-761] | 6.76
21 | COc1ccc(S(=O)(=O)N(CC(C)C)CC(O)C(Cc2ccc(NCc3ccccc3-c3c(C(=O)O)[nH]c4cc(OC)ccc34)cc2)NC(=O)OC2COC3(C)OCCC23)cc1 (stereo not drawn) [Compound I-634] | 2.26
22 | COc1ccc(S(=O)(=O)N(CC(C)C)CC(O)C(Cc2ccc(OCc3ccccc3NC(=O)c3cc(Cl)cc(Cl)c3O)cc2)NC(=O)OC2COC3(C)OCCC23)cc1 (stereo not drawn) [Compound I-69] | 1.17
23 | COc1ccc(S(=O)(=O)N(CC(C)C)CC(O)C(Cc2ccc(NCc3nc4ccccc4cc3-c3sc4c(c3C(=O)O)CC(C)(C)CC4)cc2)NC(=O)OC2COC3(C)OCCC23)cc1 (stereo not drawn) [Compound I-568] | 1.54

Row | Structure (SMILES) | IC50 [nM]
24 | COc1ccc(S(=O)(=O)N(CC(C)C)CC(O)C(Cc2ccc(N3CCN(c4ccccc4-c4sc5c(c4C(=O)O)CC(C)(C)CC5)C3=O)cc2)NC(=O)OC2COC3(C)OCCC23)cc1 (stereo not drawn) [Compound I-390] | 1.84
25 | COc1ccc(S(=O)(=O)N(CC(C)C)CC(O)C(Cc2ccc(NCc3nc(-c4sc5c(c4C(=O)O)CC(C)(C)CC5)cs3)cc2)NC(=O)OC2COC3(C)OCCC23)cc1 (stereo not drawn) [Compound I-289] | 2.4
26 | CC(C)CN(CC(O)C(Cc1ccc(OCc2ccc(-c3ccc(F)cc3F)cc2O)cc1)NC(=O)OC1COC2OCCC12)S(=O)(=O)c1ccc2ncsc2c1 (stereo not drawn) [Compound I-813] | 1.06
27 | COc1ccc(S(=O)(=O)N(CC(C)C)CC(O)C(Cc2ccc(OCCNc3ccc(C#N)cc3-c3sc4c(c3C(=O)O)CC(C)(C)CC4)cc2)NC(=O)OC2COC3(C)OCCC23)cc1 (stereo not drawn) [Compound I-258] | 5.23
28 | COc1ccc(S(=O)(=O)N(CC(C)C)CC(O)C(Cc2ccc(N(C)Cc3ccccc3-c3ccc(NC(=O)CC4CC(C)(C)CCC4=O)cc3)cc2)NC(=O)OC2COC3(C)OCCC23)cc1 (stereo not drawn) [Compound I-772] | 21
29 | COc1ccc(S(=O)(=O)N(CC(C)C)CC(O)C(Cc2ccc(CN(C)c3ccccc3-c3sc4c(c3C(=O)O)CC(C)(C)CC4)cc2)NC(=O)OC2COC3(C)OCCC23)cc1 (stereo not drawn) [Compound I-249] | 2.26
30 | COc1ccc(S(=O)(=O)N(CC(C)C)CC(O)C(Cc2ccc(N(C)CCCc3sc4c(c3C(=O)O)CC(C)(C)CC4)cc2)NC(=O)OC2COC3(C)OCCC23)cc1 (stereo not drawn) [Compound I-336] | 2.13
31 | COc1ccc(S(=O)(=O)N(CC(C)C)CC(O)C(Cc2ccc(OCc3ccccc3-c3ccc4c(c3C(=O)O)CC(C)(C)CC4)cc2)NC(=O)OC2COC3(C)OCCC23)cc1 (stereo not drawn) [Compound I-40] | 1.9
32 | COc1ccc(S(=O)(=O)N(CC(C)C)CC(O)C(Cc2ccc(NCC3=C(c4sc5c(c4C(=O)O)CC(C)(C)CC5)COC3)cc2)NC(=O)OC2COC3(C)OCCC23)cc1 (stereo not drawn) [Compound I-527] | 1.99
33 | COc1ccc(S(=O)(=O)N(CC(C)C)CC(O)C(Cc2ccc(COc3ccc(-c4ccc(F)cc4F)cc3C(=O)O)cc2)NC(=O)OC2COC3(C)OCCC23)cc1 (stereo not drawn) [Compound I-63] | 0.89
34 | COc1ccc(S(=O)(=O)N(CC(C)C)CC(O)C(Cc2ccc(N3CC(Oc4ccc(-c5sc6c(c5C(=O)O)CC(C)(C)CC6)cc4)C3)cc2)NC(=O)OC2COC3(C)OCCC23)cc1 (stereo not drawn) [Compound I-370] | 5.02
35 | COc1ccc(S(=O)(=O)N(CC(C)C)CC(O)C(Cc2ccc(OC3CCCN(c4ccccc4-c4sc5c(c4C(=O)O)CC(C)(C)CC5)C3)cc2)NC(=O)OC2COC3(C)OCCC23)cc1 (stereo not drawn) [Compound I-100] | 1.98
36 | COc1ccc(S(=O)(=O)N(CC(C)C)CC(O)C(Cc2ccc(N3CC4CN(C(=O)c5sc6c(c5C(=O)O)CC(C)(C)CC6)CC4C3)cc2)NC(=O)OC2COC3(C)OCCC23)cc1 (stereo not drawn) [Compound I-223] | 1.97
37 | COc1ccc(S(=O)(=O)N(CC(C)C)CC(O)C(Cc2ccc(OCc3ccccc3-c3oc4c(c3C(=O)O)CCCC4)cc2)NC(=O)OC2COC3(C)OCCC23)cc1 (stereo not drawn) [Compound I-130] | 1.12
38 | CC(C)CN(CC(O)C(Cc1ccc(OCc2ccc(C(=O)O)cc2-c2ccc(F)cc2F)cc1)NC(=O)OC1COC2(C)OCCC12)S(=O)(=O)c1ccc2ncsc2c1 (stereo not drawn) [Compound I-150] | 0.93
39 | CN(Cc1ccccc1C(=O)Nc1sc2c(c1C(=O)O)CC(C)(C)CC2)c1ccc(CC(NC(=O)OC2COC3(C)OCCC23)C(O)CN(CC2CCCC2)S(=O)(=O)c2ccc3c(c2)OCO3)cc1 (stereo not drawn) [Compound I-681] | 7.97
40 | COc1ccc(S(=O)(=O)N(CC(C)C)CC(O)C(Cc2ccc(N(CCCc3ccccc3)Cc3ccccc3-c3sc4c(c3C(=O)O)CC(C)(C)CC4)cc2)NC(=O)OC2COC3(C)OCCC23)cc1 (stereo not drawn) [Compound I-426] | 8.1
41 | COc1ccc(S(=O)(=O)N(CC(C)C)CC(O)C(Cc2ccc(N(C)Cc3cc(C(F)(F)F)ccc3-n3nc(C(=O)O)c4c3CCC(C)(C)C4)cc2)NC(=O)OC2COC3(C)OCCC23)cc1 (stereo not drawn) [Compound I-447] | 2.37
42 | COc1ccc(S(=O)(=O)N(CC(C)C)CC(O)C(Cc2ccc(N(C)Cc3cc(N4CCOCC4)ccc3-c3sc4c(c3C(=O)O)CC(C)(C)CC4)cc2)NC(=O)OC2COC3(C)OCCC23)cc1 (stereo not drawn) [Compound I-700] | 2.02
43 | COc1ccc(S(=O)(=O)N(CC(C)C)CC(O)C(Cc2ccc(NCc3ccc(C#N)cc3-c3sc4c(c3C(=O)O)CC(C)(C)CC4)cc2)NC(=O)OC2COC3(C)OCCC23)cc1 (stereo not drawn) [Compound I-565] | 1.75
44 | COc1ccc(S(=O)(=O)N(CC(C)C)CC(O)C(Cc2ccc(NCc3cc(C)ccc3C(=O)Nc3sc4c(c3C(=O)O)CC(C)(C)CC4)cc2)NC(=O)OC2COC3(C)OCCC23)cc1 (stereo not drawn) [Compound I-717] | 2.77
45 | COc1ccc(S(=O)(=O)N(CC(C)C)CC(O)C(Cc2ccc(NCc3nc4ccccc4cc3C(=O)Nc3sc4c(c3C(=O)O)CC(C)(C)CC4)cc2)NC(=O)OC2COC3OCCC23)cc1 (stereo not drawn) [Compound I-885] | 3.48
